According to patent US7728000B2, “Substituted quinolines for the treatment of cancer” (Crystax Pharmaceuticals, priority 2003, dated 2010):

Experiments:
Jurkat clon E6-1 = assay: In vitro cytotoxicity, colorimetric MTT assay on Jurkat clon E6-1; format: cell-based; conditions: human leukemia cell line, concentrations up to 100 mikroM, incubation until 72 h, read-out: IC50 (_M) Jurkat clon E6-1
Description: (§1) The in vitro cytotoxicity of the compounds of the present invention was evaluated by colorimetric assays with tetrazol salts (MTT) on Jurkat clon E6-1 and on GLC-4, human leukemia and carcinoma cell lines, respectively. This assay is based on the capacity of live cells to incorporate and reduce the MTT, […], only active in live cells. The intensity of observed colour is directly correlated with the quantity of live cells in the sample as it is described by Mosmann et al., J. Immunol. Methods 1983, vol. 65, p. 55. In all cases the concentrations used were up to 100 mikroM and times of incubation until 72 h.

GLC-4 = assay: In vitro cytotoxicity, colorimetric MTT assay on GLC-4; format: cell-based; conditions: GLC4, human carcinoma cell line, concentrations up to 100 mikroM, incubation until 72 h, read-out: IC50 (_M)GLC-4
Description: as §1

Row | Compound | IC50 (Jurkat clon E6-1) [nM] | IC50 (GLC-4) [nM] | melting point [°C]
1 | CN(CCCNC(=O)c1c2ccccc2nc2ccccc12)CCCNC(=O)c1c2ccccc2nc2c1[nH]c1ccccc12 [Ia, N-[3-[[3-[(9-acridinecarbonyl)amino]propyl]methylamino]propyl]-10H-indolo[3,2-b]quinoline-11-carboxamide] | 1420 | 1630 | 108 to 110
2 | CN(C)CCNC(=O)c1c2ccccc2nc2c1[nH]c1ccccc12 [Iu, 10H-indolo[3,2-b]quinoline-11-carboxylic acid (2-dimethylamino-ethyl)amide] | 18700 | 15700 | –
3 | CC(CNC(=O)c1c2ccccc2nc2c1[nH]c1ccccc12)N(C)C (stereo not shown) [Iv, 10H-Indolo[3,2-b]quinoline-11-carboxylic acid (2-dimethylamino-propyl)amide] | – | 16700 | 188 to 189
4 | CN(C)CCNc1c2nc3ccccc3c-2n(C)c2ccccc12 [Ip, N,N-dimethyl-N′-(5-methyl-5H-indolo[3,2-b]quinolin-11-yl)-ethane-1,2-diamine] | 260 | 670 | –
5 | CC(CN(C)C)Nc1c2nc3ccccc3c-2n(C)c2ccccc12 (stereo not shown) [Iw, N,N-dimethyl-N′-(5-methyl-5H-indolo[3,2-b]quinolin-11-yl)-propane-1,2-diamine] | – | 1080 | –
